Here are results for 16 compounds from patent publication US4529737A, “Analgesic and anti-inflammatory arylalkanoic acid phthalidyl esters and pharmaceutical compositions thereof” (priority 1979, dated 1985).

Where two headings read alike, the source gives them in different places.

The nature of data set [1]: carrageenin-induced rat paw edema test (anti-inflammatory activity). The class given is in vivo. Also on record: unit not given here. The following applies: oral, one hour before 2% carrageenin, paw volume 5 hours after, values marked * (I, V, VI, VII, VIII) are statistically significant. The source says: For the determination of the anti-inflammatory activity, the carrageenin-induced rat paw edema test, as a modification of the method reported by C. A. Winth et al. (Proc. Soc. Exptl. Biol. Med., 111, 544; 1962) has been used. This method involves the reduction of the edema caused by the injection of a 2% carrageenin solution in the rat paw. The compounds under examination have been administered by oral route one hour before the injection of the edemigenic agent. The volume of the rat paw has been measured by a plethismometer before and 5 hours after the injection of the carrageenin.
On the technique in general: In the carrageenan paw model, swelling and tenderness develop within hours.

The conditions of data set [2]: head DL50*: data statistically significant.
Data set [3] can be described thus: ulcerogenic activity in rats (DU50). The following applies: rat, in vivo. The source says:
The ulcerogenic activity is expressed as DU50 in rats according to the method described by Dabrodie et al (Science, 170, 183; 1970).

Data set [4] is described as follows: tail compression test in mice (analgesic activity). The class given is in vivo, mouse. Also on record: unit not given here. The conditions noted are these: values marked * (I, II, III, VII) are statistically significant. An excerpt: The tail compression test has been carried out in mice according to the method described by C. Bianchi (Brit. J. Pharmacol., 11, 104; 1956) by determining the time in seconds between the algic stimulation and the reaction of the mouse.

A short description of data set [5]: in vivo. The conditions noted are these: mouse.
Data set [6] can be described thus: in vivo. The following applies: rat.
The mark [7] stands for this setting: rats, head DU50*: data statistically significant, read-out: DU50 ulcerogenic activity.

Turning to `CC(C)Cc1ccc(C(C)C(=O)O)cc1` (stereo not drawn) [Compound I, 2-(4-isobutylphenyl)propionic acid, reference compound], the “Anti-inflammatory activity DE50” value in data set [1] is 59.14. For the same compound, the “DL50 acute toxicity, rat” value in data set [2] was determined as 1480.00 mg/kg. This compound had a TD50 in data set [3] of 85.9 mg/kg. The “Analgesic activity DE50” value in data set [4] worked out at 5.28.
Turning to `CC(C)Cc1ccc(C(C)C(=O)OC2OC(=O)c3ccccc32)cc1` (stereo not drawn) [Compound IA, phthalidyl 2-(4-isobutylphenyl)propionate], in data set [1], the “Anti-inflammatory activity DE50” value amounted to 4.30. Also, the figures for the LD50 in “in vivo [5]” and in “in vivo [6]” were 1540 mg/kg and 2180 mg/kg, respectively. Moreover, the TD50 in data set [3] was 144 mg/kg. Besides, in data set [4], the “Analgesic activity DE50” value is 2.08.
Take `COc1ccc2cc([C@H](C)C(=O)O)ccc2c1` [Compound II, d-2-(6-methoxy-2-naphthyl)propionic acid, reference compound]: the “Anti-inflammatory activity DE50” value in data set [1] was 16.36. Also, the TD50 in data set [3] (setting [7]) is 78.7 mg/kg. Also, the “Analgesic activity DE50” value in data set [4] is 21.90.
With `COc1ccc2cc(C(C)C(=O)OC3OC(=O)c4ccccc43)ccc2c1` (stereo not drawn) [Compound IIA, phthalidyl d-2-(6-methoxy-2-naphthyl)propionate], in data set [1], the “Anti-inflammatory activity DE50” value is 14.82. Moreover, the LD50 amounted to 2140 mg/kg in the data set “in vivo [5]” and 1060 mg/kg in “in vivo [6]”. The same compound returned a TD50 in data set [3] of 133 mg/kg. Further, in data set [4], the “Analgesic activity DE50” value is given as 5.81.
`CC(C(=O)O)c1cccc(C(=O)c2ccccc2)c1` (stereo not drawn) [Compound III, 2-(3-benzoylphenyl)propionic acid, reference compound]: in data set [1], the “Anti-inflammatory activity DE50” value came to 4.36. Further, the TD50 in data set [3] (setting [7]) amounted to 31.5 mg/kg. In addition, the “Analgesic activity DE50” value in data set [4] turned out to be 3.01.
Consider `CC(C(=O)OC1OC(=O)c2ccccc21)c1cccc(C(=O)c2ccccc2)c1` (stereo not drawn) [Compound IIIA, phthalidyl 2-(3-benzoylphenyl)propionate], for which the “Anti-inflammatory activity DE50” value in data set [1] is 5.15. The LD50 in “in vivo [5]” was found to be 514 mg/kg; in the data set “in vivo [6]”, 342 mg/kg. For the same compound, the TD50 in data set [3] stood at 76.7 mg/kg. Moreover, in data set [4], the “Analgesic activity DE50” value came out at 1.34.
In the case of `CC(C(=O)O)c1ccc(N2Cc3ccccc3C2=O)cc1` (stereo not drawn) [Compound IV, 2-[4-(1-oxo-2-isoindolinyl)phenyl]propionic acid, reference compound], the “Anti-inflammatory activity DE50” value in data set [1] turned out to be 5.45. In addition, the LD50 stood at 536 mg/kg in “in vivo [5]” and 62.3 mg/kg in “in vivo [6]”. Further, in data set [3], the TD50 worked out at 51.1 mg/kg. In data set [4], the “Analgesic activity DE50” value is on record as 2.58.
Turning to `CC(C(=O)OC1OC(=O)c2ccccc21)c1ccc(N2Cc3ccccc3C2=O)cc1` (stereo not drawn) [Compound IVA, phthalidyl 2-[4-(1-oxo-2-isoindolinyl)phenyl]propionate], the “Anti-inflammatory activity DE50” value in data set [1] is listed as 4.45. Moreover, the LD50 was 987 mg/kg in the data set “in vivo [5]” and 234 mg/kg in the data set “in vivo [6]”. Also, in data set [3], the TD50 stood at 116 mg/kg. Also, the “Analgesic activity DE50” value in data set [4] turned out to be 2.18.
On to `C=CCOc1ccc(CC(=O)O)cc1Cl` [Compound V, 4-allyloxy-3-chlorophenylacetic acid, reference compound], for which the “Anti-inflammatory activity DE50” value in data set [1] was 1058.45. For the same compound, the TD50 in data set [3] turned out to be 214 mg/kg. Also, the “Analgesic activity DE50” value in data set [4] was determined as 2.43.
For the compound `C=CCOc1ccc(CC(=O)OC2OC(=O)c3ccccc32)cc1Cl` (stereo not drawn) [Compound VA, phthalidyl 4-allyloxy-3-chlorophenylacetate], the “Anti-inflammatory activity DE50” value in data set [1] was determined as 117.34. For the same compound, the LD50 in “in vivo [5]” was 2060 mg/kg; in “in vivo [6]”, 1770 mg/kg. For the same compound, the TD50 in data set [3] was found to be 380 mg/kg. The “Analgesic activity DE50” value in data set [4] worked out at 2.50.
With `O=C(O)Cc1ccccc1Nc1c(Cl)cccc1Cl` [Compound VI, 2-(2,6-dichloroanilino)phenylacetic acid, reference compound], the “Anti-inflammatory activity DE50” value in data set [1] came to 189.54. For the same compound, the TD50 in data set [3] (setting [7]) is 13.1 mg/kg. In data set [4], the “Analgesic activity DE50” value was 3.81.
With `O=C(Cc1ccccc1Nc1c(Cl)cccc1Cl)OC1OC(=O)c2ccccc21` (stereo not drawn) [Compound VIA, phtalidyl 2-(2,6-dichloroanilino)phenylacetate], the “Anti-inflammatory activity DE50” value in data set [1] is listed as 144.21. For the same compound, the LD50 was determined as 593 mg/kg in the data set “in vivo [5]” and 342 mg/kg in the data set “in vivo [6]”. The same compound displayed a TD50 in data set [3] of 26.1 mg/kg. Moreover, in data set [4], the “Analgesic activity DE50” value is 4.33.
For `O=C(O)CCC(=O)c1ccc(-c2ccccc2)cc1` [Compound VII, 4-(4-biphenylyl)-4-oxobutyric acid, reference compound], the “Anti-inflammatory activity DE50” value in data set [1] is listed as 30.53. The compound also showed a TD50 in data set [3] of 78.7 mg/kg. Also, in data set [4], the “Analgesic activity DE50” value is 4.02.
Regarding `O=C(CCC(=O)c1ccc(-c2ccccc2)cc1)OC1OC(=O)c2ccccc21` (stereo not drawn) [Compound VIIA, phthalidyl 4-(4-biphenylyl)-4-oxobutyrate], in data set [1], the “Anti-inflammatory activity DE50” value amounted to 20.08. Further, the LD50 in “in vivo [5]” is 1400 mg/kg; in the data set “in vivo [6]”, 1380 mg/kg. Also, the TD50 in data set [3] was determined as 146 mg/kg. In addition, the “Analgesic activity DE50” value in data set [4] came out at 2.95.
As to `O=C(O)Cc1ccc(-c2ccccc2)cc1` [Compound VIII, 4-biphenylylacetic acid, reference compound], in data set [1], the “Anti-inflammatory activity DE50” value was 21.79. The LD50 in the data set “in vivo [5]” is 750 mg/kg; in “in vivo [6]” it was 635 mg/kg. In data set [3], this compound gave a TD50 of 65.3 mg/kg. Besides, the “Analgesic activity DE50” value in data set [4] is 3.07.
As for `O=C(Cc1ccc(-c2ccccc2)cc1)OC1OC(=O)c2ccccc21` (stereo not drawn) [Compound VIIIA, phtalidyl 4-biphenylylacetate], the “Anti-inflammatory activity DE50” value in data set [1] is given as 13.28. The 50% lethal dose (LD50) in the data set “in vivo [5]” is 1410 mg/kg; in “in vivo [6]”, 1170 mg/kg. This compound registered a TD50 in data set [3] of 186 mg/kg. Also, in data set [4], the “Analgesic activity DE50” value worked out at 2.78.

The LD50 is the dose at which mortality reaches 50%.
